Each structure is given as a SMILES string. ≈ marks a conversion by molar mass, not a printed value.

The results in this text go back to patent publication US4215049A, “Antitumorigenic lactone derivative” (Nippon Kayaku Kabushiki Kaisha, priority 1977, dated 1980).

Experiment [1] relates to Ehrlich ascites cancer cells. The experiment can be described thus: Life-prolonging effect for mice suffering from Ehrlich ascites cancer. The class given is in vivo, mice (ICR/JCL). The settings on record: for Life prolongation rate: average survival days, control group indexed as 100; for life-prolonging effect for mice with Ehrlich ascites cancer (in words): in comparison with the control mice. On the procedure:
The mice of ICR/JCL species (.male., 5-week-old, 5 mice per group) were intraperitoneally inoculated with 2,000,000 pieces of Ehrlich ascites cancer cells, and the compounds of this invention were administered, starting 2 hours after inoculation, in the dosages shown in Table 5 below once a day for a total period of 10 days.
the drug treated groups as calculated with the average number of survival
days of the control group being indexed as 100.

Experiment [2] deals with HeLa S3 cells. Description: Inhibitory effect against growth of HeLa S3 cells (in vitro). The format is cell-based. The settings on record: for IC50: 72 h, HeLa S3 cells, read-out: ID50 (the source's name); for inhibitory effect against growth of cancer (HeLa) cells (in words): low concentration. How it is done:
The roots (0.3 kg by half-dry weight), stalks (1.6 kg by half-dry weight) and leaves (2.1 kg by half-dry weight) were ground and extracted respectively with methanol. Each liquid extract was filtered and the filtrate was concentrated under reduced pressure to obtain an oily residue containing the object compounds.
(Note) The inhibitory effect against growth of the HeLa cells was determined in the manner described below.
The HeLa S3 cells were spread on 6 cm-diameter plastic laboratory plates in the amount of 0.7×10^5 cells/plate and cultured by using an MEM medium containing 60 μg/ml of kanamycin and 10% calf serum. 2 days later, the medium was replaced with one containing the compounds of this invention. The cell population at that time was 1.58×10^5 cells/plat. After addition of the compounds, the cells were cultured for three days, and then, after removing the medium, the culture was washed with a physiological saline solution, treated with 0.05% trypsin at room temperature for about 15 minutes, and then pipetted and dispersed. The number of surviving cells was counted by a […], and percent inhibition was measured by counting the number of the living cells in the control section to determine ID50. [formula]

Setting [3] is: 7.50 mg/kg once a day for 10 days.
Setting [4] is: 15.0 mg/kg once a day for 10 days.

Take `C=C1C(=O)OC2C=C(C)C(OC(C)=O)CC=C(C)CC(OC(=O)C(=CCO)CO)C12` (stereo not shown) [Compound I]: the Life prolongation rate in experiment [1] (setting [3]) came to 253; in experiment [1] (setting [4]), 232. In experiment [1], the “life-prolonging effect for mice with Ehrlich ascites cancer (in words)” value is recorded as “prominent life-prolonging effect”. Also, the IC50 in experiment [2] (Homo sapiens, 3 days) amounted to 1.4 µg/mL (≈ 3.33 µM). Moreover, in experiment [2] (Homo sapiens, HeLa S3, 72 h, 1 μg/ml, 3 days, read-out: Percent inhibition), the inhibition at 1 µg/mL was determined as 29.4%. Further, the inhibition at 2 µg/mL in experiment [2] (Homo sapiens, HeLa S3, 72 h, 2 μg/ml, 3 days, read-out: Percent inhibition) worked out at 74.9%. Also, the inhibition at 4 µg/mL in experiment [2] (Homo sapiens, HeLa S3, 72 h, 4 μg/ml, 3 days, read-out: Percent inhibition) stood at 100%. For the same compound, in experiment [2], the “inhibitory effect against growth of cancer (HeLa) cells (in words)” value is reported as “high inhibitory effect against growth of the cancer cells”.

For `C=C1C(=O)OC2C=C(C)C(OC(C)=O)CC=C(C)CC(O)C12` (stereo not shown) [III], the Life prolongation rate in experiment [1] (setting [3]) amounted to 95; in experiment [1] (setting [4]), 108. In experiment [1] (mouse, in vivo), the “effect of compound III compared with compounds I and II (in words)” value was “not so conspicuous in effect as the compounds I and II”.

For the compound `C=C1C(=O)OC2C=C(C)C(OC(C)=O)CC=C(C)CC(OC(=O)C(C)=CCO)C12` (stereo not shown) [II], the values for the Life prolongation rate in experiment [1] (setting [3]) and in experiment [1] (setting [4]) were 159 and 173, respectively. In addition, the “life-prolonging effect for mice with Ehrlich ascites cancer (in words)” value in experiment [1] is on record as “prominent life-prolonging effect”. Further, the IC50 in experiment [2] (Homo sapiens, 3 days) was found to be 0.62 µg/mL (≈ 1.53 µM). In addition, the inhibition at 0.375 µg/mL in experiment [2] (Homo sapiens, HeLa S3, 72 h, 0.375 μg/ml, 3 days, read-out: Percent inhibition) was 28.4%. Also, the inhibition at 0.75 µg/mL in experiment [2] (Homo sapiens, HeLa S3, 72 h, 0.75 μg/ml, 3 days, read-out: Percent inhibition) was 57%. Moreover, the inhibition at 1.5 µg/mL in experiment [2] (Homo sapiens, HeLa S3, 72 h, 1.5 μg/ml, 3 days, read-out: Percent inhibition) came to 100%. For the same compound, the “inhibitory effect against growth of cancer (HeLa) cells (in words)” value in experiment [2] is given as “high inhibitory effect against growth of the cancer cells”.

What is called inhibition is the drop in the measured response relative to a control, in per cent.
